Experiments:
σ1 receptor = target: T1, σ1 receptor (Cavia porcellus, UniProt Q60492); test: Sigma-1 receptor competition binding assay with [3H]-(+)-pentazocine; parameters: species or system guinea pig; settings: apparent Ki (Cheng-Prusoff), brain membranes
T1 construct: The membranes were prepared from guinea pig brain (minus cerebellum) as described above; from tissue; host or cells: guinea pig brain (minus cerebellum) membranes
Method: The in vitro σ1 receptor binding affinities of rhenium coordinated complexes were determined in a competition assay using […] and high-affinity σ1 ligand [3H]-(+)-pentazocine (28 Ci/mmol, NEN Life Science Inc., Cambridge, Mass.). See, Mol. Neuropharmacol. 1993, 3, 117-126.
The membranes were prepared from guinea pig brain (minus cerebellum) as described above and stored at −70 ° C. Twelve concentrations of the nonradioactive rhenium complexes ranging from 1×10^−11 to 1×10^−3 and protein samples (0.15 mg of membrane protein) were incubated with […] [3H]-(+)-pentazocine in a total volume of 0.25 mL of Tris-HCl (50 mM, pH 8.0). Incubations were carried out for 120 min at 25° C. All assays were terminated by dilution with 5 mL of ice-cold Tris-HCl (10 mM), pH 8.0, and solution were filtered through glass-fiber filters (Whatman GF/F; presoaked in 0.5% polyethyleneimine for 30 min at 25° C.). Filters were then washed three times with 5 mL of ice-cold Tris-HCl (50 mM, pH 8.0), and counted in Hionic-Fluor cocktail (Packard, Groningen, the Netherlands). The corresponding IC50 values were determined with Origin 6.0 software (OriginLab, Northampton, Mass.) and were used for the calculation of the apparent Ki values with the Cheng-Prusoff equation. See, Biochem. Pharmacol. 1973, 22, 3099-3108.

α1 receptor = test: Alpha-1 receptor competition binding assay with [3H]-Prazosin; settings: apparent Ki, rat frontal cortex
Method: The in vitro α1 receptor binding affinities of rhenium coordinated complexes were determined in a competition assay using rat frontal cortex and high-affinity α1 ligand [^3H]-Prazosin (80 Ci/mmol, NEN Life Science Inc., Cambridge, Mass.). See, Eur. J. Nucl. Med. 2002, 29, 82-87.
The frontal cortex of rat brain was prepared as described above and store at −70° C. until used in the binding assays. Ten concentrations of the nonradioactive rhenium complexes ranging from 1×10^−10 to 1×10^−3 and protein samples (0.15 mg of membrane protein) were incubated with 1.5 nM [^3H]-Prazosin in a total volume of 0.25 mL of Tris-HCl (50 mM, pH 7.4, 10 mM MgSO4). Incubations were carried out for 60 min at 25° C. All assays were terminated by dilution with 5 mL of ice-cold Tris-HCl (10 mM), pH 7.4, and solution were filtered through glass-fiber filters (Whatman GF/F; presoaked in 0.5% polyethyleneimine for 30 min at 25° C.). Filters were then washed three times with 5 mL of ice-cold Tris-HCl (50 mM, pH 7.4), and counted in Hionic-Fluor cocktail (Packard, Groningen, the Netherlands). The corresponding IC50 values were determined with Origin 6.0 software (OriginLab, Northampton, Mass.) and were used for the calculation of the apparent Ki values with the Cheng-Prusoff equation. See, Biocheni. Pharmacol. 1973, 22, 3099-3108.

[1] = Determination of lipophilicity and pKa values by HPLC; assay type: physicochemical; settings: for k' (pH = 7.4): HPLC capacity factor at pH 7.4; for k' (Max): HPLC capacity factor, maximum; for pKa (Corrected): HPLC method, corrected with standard amines
Method: The lipophilicity and pKa values of all complexes were determined using HPLC methods described previously (Stylli, C.; Theobald, A. E. Determination of Ionization Constants of Radiopharmaceuticals in Mixed Solvents by HPLC. Appl. Radiat. Isot., 1987, 38, 701-708; Johannsen, B.; Scheunemann, M.; Spies, H.; Brust, P.; Wober, J.; Syhre, R.; Pietzsch, H.-J. Technetium(V) and Rhenium(V) Complexes for 5-HT2A Serotonin Receptor Binding: Structure-Affinity Considerations. Nucl. Med. Biol., 1996, 23, 429-438; and Johannsen, B.; Berger, R.; Brust, P.; Pietzsch, H.-J.; Scheunemann, M.; Seifert, S.; Spies, H.; Syhre, R. Structural Modification of Receptor-Binding Technetium-99m Complexes in Order to Improve Brain Uptake. Eur. J. Nucl. Med. 1997, 24, 316-319). […] The mobile phase was acetonitrile:phosphate buffer (0.01 M), 3:1, v/v, with the aqueous buffer adjusted to the desired pH between 3 and 11. The capacity factor (k′) was calculated for each determination (Braumann, T.; Grimme, L. H. Determination of Hydrophobic Parameters for Pyridazinone Herbicides by Liquid-Liquid Partition and Reversed-Phase High-Performance Liquid Chromatography. J. Chromatogr. 1981, 206, 7-15; El Tayer, N.; van der Waterbeemd, H.; Testa, B. Lipophilicity Measurements of Protonated Basic Compounds by Reversed-Phase High-Performance Liquid Chromatography. II. Procedure for the Determination of a Lipophilic Index Measured by Reversed-Phase High Performance Liquid Chromatography. J. Chromatogr. 1985, 320, 305-312; and Minick, D. J.; Frenz, J. H.; Patrick, M. A.; Brent, D. A. A Comprehensive Method for Determining Hydrophobicity Constants by Reversed-Phase High-Performance Liquid Chromatography. J. Med. Chem., 1988, 31, 1923-1933) and the partition coefficient at a given pH (D or logD) were calculated from the equation: log D=a log k′+b where the parameters a and b are predetermined using standard amines. The fitted points of inflection from the sigmoidal DHPLC/pH profiles permit calculation of the pKHPLC(Stylli, C.; Theobald, A. E. Determination of Ionization Constants of Radiopharmaceuticals in Mixed Solvents by HPLC. Appl. Radiat. Isot., 1987, 38, 701-708). The aqueous ionization constants pKa were calculated from the pKHPLC values after correction with a predetermined correction factor obtained using standard amine compounds. Log P values of the neutral complexes were estimated from the respective upper plateau of the sigmoidal log D/pH curve in the alkaline range.

T1 sequence (Q60492 whole entry): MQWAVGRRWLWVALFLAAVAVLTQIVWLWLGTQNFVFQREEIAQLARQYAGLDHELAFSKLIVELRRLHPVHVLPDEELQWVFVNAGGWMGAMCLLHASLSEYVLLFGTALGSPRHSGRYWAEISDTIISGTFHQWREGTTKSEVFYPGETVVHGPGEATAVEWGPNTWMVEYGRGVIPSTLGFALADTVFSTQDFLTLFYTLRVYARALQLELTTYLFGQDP

SMILES | Ki (σ1 receptor) [µM] | Ki (α1 receptor) [µM] | k' (pH = 7.4) [1] | k' (Max) [1] | pKa (Corrected) [1]
O=C1CN(CCCN2CCC(Cc3ccccc3)CC2)CC[S][Re]2(=[O])[S]CC[N]12 (stereo not shown) [Re-15] | 0.547 | 0.322 ± 0.061 | 60 | 160 | 8.34
COc1ccccc1C1CCN(CCCN2CC[S][Re]3(=[O])[S]CC[N]3C(=O)C2)CC1 (stereo not shown) [Re-16] | 4.83 | 0.048 ± 0.009 | 57 | 117 | 8.09

— patent US20060159617A1, “Small technetium-99m and rhenium labeled agents and methods for imaging tissues, organs and tumors” (priority 2002, published 2006)
